Structures can show the parent of a compound that is named as a salt.
Key:
[1] = tested on: hippocampal slices incubated with Aβ oligomers; test: Electrophysiology (LTP) in hippocampal slices incubated with Aβ oligomers; type: cell-based, C57bl6 male mice
Protocol: Hippocampal slices were prepared according to standard procedures previously described. Briefly, transverse slices (350 μm) from the dorsal hippocampus were cut under cold artificial cerebrospinal fluid (ACSF, in mM: 124 NaCl, […], 10 D-glucose, 2.69 KCl, 1.25 KH2PO4 2.5 CaCl2, 1.3 MgSO4, and 2.60 NaHPO4) using a Vibratome (Leica VT 1000 s, Germany) and incubated in ACSF for 1 h at room temperature. In all experiments, 10 μM picrotoxin (PTX) was added to suppress inhibitory GABAA transmission. Slices were transferred to an experimental chamber (2 mL), superfused (3 mL/min, at 20-22° C.) with gassed ACSF and visualized by trans-illumination with a binocular microscope (MSZ-10, Nikon, Melville, N.Y.). To evoke field excitatory postsynaptic potentials (fEPSPs), we stimulate with bipolar concentric electrodes (Platinum/Iridium, 125 μm OD diameter, FHC Inc., Bowdoin, Me.) generated by a stimulator (Axon 700b, Molecular Devices, Sunnyvale, Calif.) and connected to an isolation unit (Isoflex, AMPI, Jerusalem, Israel). The stimulation was in the Stratum Radiatum within 100-200 μm from the recording site. The paired pulse facilitation index was calculated by ((R2−R1)/R1), where R1 and R2 were the peak amplitudes of the first and second fEPSP respectively. To generate LTP we used Theta Burst Stimulation (TBS) consisting of 5 trains of stimulus with an inter-train interval of 20 s. Each train consisted of 10 bursts at 5 Hz and each burst having 4 pulses at 100 Hz. To generate LTD we used Low Frequency Stimulation (LFS) consisting in 900 paired pulses at 1 Hz. […] Evoked postsynaptic responses were analyzed off-line, using an analysis software (pClampfit, Molecular Devices), which allowed visual detection of events, computing only those events that exceeded and arbitrary threshold.
Electrophysiological registers of hippocampal slices of 2-month-old C57bl6 male mice were assessed to evaluate the synaptic transmission through the long-term potentiation (LTP). […] In FIG. 3B, the quantification at min 60 of fEPSP are shown. […]

APP-PS1 mice [2] = test: Total load of brain amyloid deposits in APP-PS1 mice (Aβ 6E10 immunodetection); type: in vivo, mouse
APP-PS1 mice [3] = test: Senile plaques in APP-PS1 mice (Thioflavin-S staining); type: in vivo, mouse
[4] = slices with Aβ oligomers, FIG. 3A
[5] = 7-month-old APP-PS1 mice, FIG. 7A
[6] = 11-month-old APP-PS1 mice, FIG. 7B
[7] = 7-month-old APP-PS1 mice, FIG. 8
[8] = 11-month-old APP-PS1 mice, FIG. 8B

| SMILES | LTP induction (in words) [1, 4] | Aβ-positive aggregate area, brain cortex (APP-PS1 mice [2]; [5]) | total Aβ load, cortex (APP-PS1 mice [2]; [6]) | Th-S positive area, cortex (APP-PS1 mice [3]; [7]) | fEPSP magnitude response at min 60 ([1]; compared to slices treated with Aβ oligomers, FIG. 3B) [%] | LTP induction [1, 4] [%] | Aβ load, hippocampus (APP-PS1 mice [2]; [5]) | total Aβ load, hippocampus (APP-PS1 mice [2]; [6]) | Th-S amyloid aggregates, hippocampal region (APP-PS1 mice [3]; [7]) | Th-S amyloid deposits, cortex (APP-PS1 mice [3]; [8]) | Th-S amyloid deposits, hippocampus (APP-PS1 mice [3]; [8]) |
| --- | --- | --- | --- | --- | --- | --- | --- | --- | --- | --- | --- |
| CC1=C[C@@H]2Cc3nc4cc(Cl)ccc4c(NCCCCCCCCCNC(=O)c4cc(O)c5c(c4)C(=O)c4cccc(O)c4C5=O)c3[C@H](C1)C2 [(−)-(Ib)•HCl, (−)-(7S,11S)—N-{9-[(3-chloro-6,7,10,11-tetrahydro-9-methyl-7,11-methanocycloocta[b]quinolin-12-yl)amino]nonyl}-9,10-dihydro-4,5-dihydroxy-9,10-dioxoanthracene-2-carboxamide] | no LTP induction | significant reduction | reduction in total Aβ load | significant reduction in the Th-S positive area |  |  |  |  |  |  |  |
| CC1=C[C@H]2Cc3nc4cc(Cl)ccc4c(NCCCCCCCCCNC(=O)c4cc(O)c5c(c4)C(=O)c4cccc(O)c4C5=O)c3[C@@H](C1)C2 [(+)-(Ib)•HCl, (+)-(7R,11R)—N-{9-[(3-chloro-6,7,10,11-tetrahydro-9-methyl-7,11-methanocycloocta[b]quinolin-12-yl)amino]nonyl}-9,10-dihydro-4,5-dihydroxy-9,10-dioxoanthracene-2-carboxamide] |  | significant reduction | reduction in total Aβ load | significant reduction in the Th-S positive area | 200 | 200 | diminished the load levels of Aβ oligomers | reduction in total load of Aβ | reduction in the amyloid aggregates | reduction in amyloid deposits | reduction in amyloid deposits |
